{"source": "patent US6254853A", "about": "“Water soluble pro-drugs of propofol” (Vyrex Corporation, priority 1998, dated 2001)", "key": {"[1]": {"conditions": "literature; cited from earlier work"}, "spinal cord": {"test_system": "spinal cord", "conditions": "literature; cited from earlier work"}, "colorectal cancer tumors": {"test_system": "colorectal cancer tumors", "conditions": "mice; co-administered with 5-fluorouracil or doxorubicin; Chinery et al. 1997; cited from earlier work"}, "[2]": {"test_system": "low density lipoprotein (LDL)", "assay": "Effect of propofol esters on hydrogen peroxide/horseradish peroxidase-promoted oxidation of LDL (conjugated dienes)", "assay_type": "biochemical, human", "conditions": "5 μM; 100 μg/ml LDL, 1 U horseradish peroxidase, 50 μM H2O2", "from_the_text": "(§1) The following experiment is based on the use of low density lipoprotein (LDL) as an oxidizable substrate. LDL is one of the plasma lipoproteins whose oxidation is thought to contribute to the pathogenesis of atherosclerosis. The copper-promoted, the hydrogen peroxide-/horseradish peroxidase-promoted and the myeloperoxidase-promoted oxidation of LDL are models for the free radical-induced oxidation of LDL that occurs in vivo.\n(§2) LDL was isolated from heparinized plasma of normal human donors by ultracentrifugation. Most of the experiments described in this study were performed immediately after isolation. Examples and further details of the experimental procedures may be found in N. Santanam et al. J. Clin Invest. 95(6):2594 (1995) and FEBS Leters, 414:549-551 (1997).\n(§3) The formation of conjugated dienes was measured in a spectrophotometer (model DB-3500; SLM-AMINCO, Urbana, Ill.) equipped with a 12 position sample changer. Samples and references were measured continuously for periods of up to several hours. Typically, 100 μg/ml of LDL was incubated in PBS with 1 U horseradish peroxidase (type X, 260 U/mg) in the presence of 50 μM H2 O2. For copper-mediated oxidation, 100 μg/ml LDL was incubated with 5 μM copper sulfate solution."}, "[3]": {"test_system": "low density lipoprotein (LDL)", "assay": "Effect of propofol esters on copper-promoted oxidation of LDL (conjugated dienes)", "assay_type": "biochemical, human", "conditions": "5 μM; 100 μg/ml LDL, 5 μM copper sulfate", "from_the_text": "as §1, §2, §3"}, "[4]": {"assay": "In vitro hydrolysis of propofol esters to propofol in human saliva", "assay_type": "in vitro ADME", "conditions": "room temperature, approximate", "experimental": "(§4) In vitro hydrolysis of propofol esters in various media\n(§5) General procedure: Propofol ester was dissolved in the test medium at room temperature, and samples were removed periodically for analysis. The samples were extracted with hexane, the extracts were evaporated to dryness, and the residues were taken up in methanol. Analysis was by HPLC using methanol solvent through an ODS column and UV detection at 260 nm.\n(§6) The approximate half-life for the hydrolysis of propofol hemisuccinate to propofol in various media were as follows: […]"}, "Water solubility": {"assay": "Water solubility", "conditions": "in words"}, "[5]": {"assay": "In vitro hydrolysis of propofol esters to propofol in human whole blood", "assay_type": "in vitro ADME", "conditions": "room temperature, approximate", "experimental": "as §4, §5, §6"}, "[6]": {"assay": "In vitro hydrolysis of propofol esters to propofol in albumin", "assay_type": "in vitro ADME", "conditions": "room temperature, approximate", "experimental": "as §4, §5, §6"}, "[7]": {"assay": "In vitro hydrolysis of propofol esters to propofol in human plasma", "assay_type": "in vitro ADME", "conditions": "room temperature, approximate", "experimental": "as §4, §5, §6"}, "[8]": {"assay": "In vitro hydrolysis of propofol esters to propofol in water (PBS buffer pH 7.4)", "assay_type": "in vitro ADME", "conditions": "room temperature, approximate", "experimental": "as §4, §5, §6"}, "[9]": {"assay": "In vitro hydrolysis of propofol esters to propofol in rat whole blood", "assay_type": "in vitro ADME", "conditions": "room temperature, approximate", "experimental": "as §4, §5, §6"}, "[10]": {"test_system": "Human low density lipoprotein (huLDL)", "assay": "Effect of propofol esters on myeloperoxidase-mediated oxidation of LDL (conjugated dienes)", "assay_type": "biochemical", "conditions": "concentration not given", "from_the_text": "as §1, §2\nHuman low density lipoprotein (huLDL) in the presence of myeloperoxidase undergoes oxidative modification. The oxidative damage may be measured by spectrophotometric detection of the resulting conjugated dienes (N. Santanam & S. Parthasarathy, J. Clin. Invest, 95(6):2594 (1995))."}, "[11]": {"assay": "In vivo hydrolysis of propofol hemisuccinate after gavage (blood levels of propofol; observation of the animals)", "parameters": "species or system male Sprague-Dawley rats", "conditions": "rat, two days following dosing", "experimental": "At a dosage of 400 mg of propofol hemisuccinate per kg body weight, the blood level of propofol at 4 hrs was about 1 μg/ml."}, "[12]": {"conditions": "in words; background knowledge; cited from earlier work"}, "lipid peroxidation": {"test_system": "lipid peroxidation", "conditions": "Misacchia et al. 1991; cited from earlier work"}}, "note": "“Also recorded” adds a separate entry of the source."}
{"smiles": "Cc1c(C)c2c(c(C)c1O)CCC(C)(CCCC(C)CCCC(C)CCCC(C)C)O2", "note": "(stereo not drawn) [Alpha-tocopherol]", "values": [{"measurement": "uptake into the central nervous system", "setting": "[1]", "result": "very slowly"}, {"measurement": "effect on chronic neurological recovery", "setting": "spinal cord", "result": "enhance chronic neurological recovery"}, {"measurement": "effect on post-traumatic spinal cord ischemia", "setting": "spinal cord", "result": "decrease post-traumatic spinal cord ischemia"}, {"measurement": "growth of colorectal cancer tumors", "setting": "colorectal cancer tumors", "result": "inhibited the growth"}]}
{"smiles": "CC(C)c1cccc(C(C)C)c1OP(=O)(O)Oc1c(C(C)C)cccc1C(C)C", "note": "[di(propofol) phosphoric acid ester]", "values": [{"measurement": "effect on oxidation of LDL in the presence of horseradish peroxidase/hydrogen peroxide", "setting": "[2]", "result": "not significantly affected"}, {"measurement": "effect on copper-promoted oxidation of LDL", "setting": "[3]", "result": "not significantly affected"}]}
{"smiles": "CC(C)c1cccc(C(C)C)c1OP(=O)(O)O", "note": "[mono(propofol) phosphate]", "values": [{"measurement": "Half-Life to Hydrolysis", "setting": "[4]", "result": "about four"}, {"measurement": "solubility in water", "setting": "Water solubility", "result": "most soluble"}, {"measurement": "effect on oxidation of LDL in the presence of horseradish peroxidase/hydrogen peroxide", "setting": "[2]", "result": "not significantly affected"}, {"measurement": "effect on copper-promoted oxidation of LDL", "setting": "[3]", "result": "not significantly affected"}]}
{"smiles": "CC(C)c1cccc(C(C)C)c1OC(=O)CCC(=O)O", "note": "[propofol hemisuccinate, 2,6-diisopropylphenyl hydrogen succinate]", "values": [{"measurement": "half-life", "setting": "[5]", "result": "~48", "unit": "h"}, {"measurement": "half-life", "setting": "[6]", "result": "~144", "unit": "h"}, {"measurement": "half-life", "setting": "[4]", "result": "~96", "unit": "h"}, {"measurement": "solubility in water", "setting": "Water solubility", "result": "most soluble"}, {"measurement": "effect on oxidation of LDL in the presence of horseradish peroxidase/hydrogen peroxide", "setting": "[2]", "result": "slightly inhibited"}, {"measurement": "half-life", "setting": "[7]", "result": "~72", "unit": "h"}, {"measurement": "half-life", "setting": "[8]", "result": "~336", "unit": "h"}, {"measurement": "half-life", "setting": "[9]", "result": "~2", "unit": "h"}, {"measurement": "effect on oxidation of LDL in the presence of myeloperoxidase", "setting": "[10]", "result": "partly inhibited; also recorded: significantly inhibited"}, {"measurement": "condition of the animals through the two day observation period", "setting": "[11]", "result": "remained healthy and active"}, {"measurement": "effect on copper-promoted oxidation of LDL", "setting": "[3]", "result": "not significantly affected"}]}
{"smiles": "CC(C)c1cccc(C(C)C)c1O", "note": "[propofol, 2,6-diisopropylphenol]", "values": [{"measurement": "water solubility of propofol", "setting": "[12]", "result": "almost completely insoluble in water; also recorded: very low water solubility"}, {"measurement": "effect on oxidation of LDL in the presence of horseradish peroxidase/hydrogen peroxide", "setting": "[2]", "result": "almost totally inhibited"}, {"measurement": "inhibition of lipid peroxidation", "setting": "lipid peroxidation", "result": "inhibit lipid peroxidation"}, {"measurement": "effect on copper-promoted oxidation of LDL", "setting": "[3]", "result": "almost totally inhibited"}]}
{"smiles": "S=C(S)N1CCCC1", "note": "[pyrrolidine dithiocarbamate (PDTC), pyrrolidine dithiocarbamate]", "values": [{"measurement": "growth of colorectal cancer tumors", "setting": "colorectal cancer tumors", "result": "inhibited the growth"}]}
